Structures are written as SMILES. Several values for one entry are separate records, joined by “and”; a condition that tells them apart may be missing. Identical values can stand only once.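 Five concentrations, 48 hours, 96-well plates. The concentration for 50% growth inhibition is given as GI50. TGI: concentration producing complete growth inhibition.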

Some test systems named below: A549 NSCLC; UO-31 renal; SK-MEL-2 melanoma; M14 melanoma; SF-539 CNS; CAKI-1 renal; K-562 leukemia; EKVX NSCLC.
Assay in all cases: inhibition of tumour cell growth, NCI panel, 48 h

Consider `C=Cc1cncc(C#N)c1CCc1c(C#N)cncc1C=C`, for which the GI50 with A549 NSCLC was > 100 µM; in the assay on UO-31 renal, > 100 µM; in the assay on SK-MEL-2 melanoma it was > 100 µM; in the assay on M14 melanoma it was > 100 µM; with SF-539 CNS it was > 100 µM; with CAKI-1 renal, > 10 µM. The GI50 in the assay on K-562 leukemia is > 100 µM; in the assay with EKVX NSCLC, > 10 µM. Also, the TGI in the assay with A549 NSCLC, with UO-31 renal, with SK-MEL-2 melanoma, in the assay on M14 melanoma, in the assay with SF-539 CNS and with CAKI-1 renal was > 100 µM throughout. The TGI with K-562 leukemia and with EKVX NSCLC was > 100 µM in each case.
Regarding `O=C1C=CC(=O)C2=C1[C@@H](O)C1CC=CC3C(=O)O[C@@H]2C31` (stereo partly drawn), the TGI was > 100 µM in the assay on A549 NSCLC; > 71.5 µM in the assay with UO-31 renal; 35.6 µM with SK-MEL-2 melanoma; 36 µM with M14 melanoma; > 58.6 µM in the assay on SF-539 CNS; 35.2 µM in the assay on CAKI-1 renal. Further, the TGI with K-562 leukemia is > 61.5 µM; with EKVX NSCLC, > 100 µM.
`O=C(O)CC[C@H](NC(=O)c1ccc(-n2nc3ccc(O)cc3nc2=O)cc1)C(=O)O`: the TGI in the assay with A549 NSCLC, with UO-31 renal, with SK-MEL-2 melanoma, in the assay with M14 melanoma, in the assay with SF-539 CNS and in the assay on K-562 leukemia was > 100 µM throughout. Further, the TGI with EKVX NSCLC is > 100 µM.
Regarding `C[C@H](OCc1ccccc1)C(=O)N1CCS(=O)(=O)N2CCC[C@@H]2C1=O`, the TGI in the assay on A549 NSCLC, with UO-31 renal, in the assay on M14 melanoma, with SF-539 CNS, in the assay with CAKI-1 renal and with K-562 leukemia was > 100 µM each time. For the same compound, the TGI in the assay with EKVX NSCLC is > 100 µM.
Consider `O=C1CCCCC1S(=O)(=O)c1ccccc1` (stereo not drawn), for which the TGI in the assay on A549 NSCLC, with UO-31 renal, with SK-MEL-2 melanoma, in the assay with M14 melanoma, in the assay on SF-539 CNS and in the assay with CAKI-1 renal was > 100 µM throughout. Also, the TGI in the assay on K-562 leukemia and in the assay with EKVX NSCLC was > 100 µM each time.
For the compound `O=S(=O)(/C=C/c1ccc(F)cc1)Cc1ccc(CS(=O)(=O)/C=C/c2ccc(F)cc2)cc1`, the TGI in the assay on A549 NSCLC, in the assay with UO-31 renal, in the assay with SK-MEL-2 melanoma, in the assay on M14 melanoma, with SF-539 CNS and in the assay with CAKI-1 renal was > 100 µM each time. For the same compound, the TGI in the assay with K-562 leukemia and in the assay on EKVX NSCLC was > 100 µM each time.
Consider `COc1ccc(/C=C/c2cc(OC)c(OC)c(OC)c2)cc1`, for which the TGI in the assay on A549 NSCLC is > 100 µM; in the assay on UO-31 renal it was > 100 µM; in the assay on SK-MEL-2 melanoma, 52.8 µM; in the assay with M14 melanoma, > 100 µM; in the assay on SF-539 CNS it was 13.6 µM; in the assay with CAKI-1 renal it was 98.4 µM. Further, the TGI with K-562 leukemia and with EKVX NSCLC was > 100 µM each time. The GI50 with K-562 leukemia was 34 µM.
`CC(CN(C)C)/C(=N\Nc1ccccc1)c1ccccc1` (stereo not drawn): the TGI in the assay on A549 NSCLC was 2.4 µM; in the assay on UO-31 renal it was 3.28 µM; with M14 melanoma, 16.8 µM; in the assay with SF-539 CNS, 0.774 µM; in the assay with K-562 leukemia, 0.527 µM; in the assay with EKVX NSCLC it was 35.6 µM.
Take `CCOc1cc2c(C(=O)CC)c(O)ccc2o1`: the TGI in the assay on A549 NSCLC, in the assay on UO-31 renal, in the assay with SK-MEL-2 melanoma, in the assay on M14 melanoma, in the assay on SF-539 CNS and in the assay on CAKI-1 renal was > 100 µM each time. The values for the TGI in the assay on K-562 leukemia and in the assay with EKVX NSCLC were > 81.7 µM and > 100 µM, respectively.
In the case of `Cc1cn(C2CC3C(COCN3O)O2)c(=O)[nH]c1=O` (stereo not drawn), the TGI with A549 NSCLC, in the assay with UO-31 renal, in the assay with M14 melanoma, with SF-539 CNS, with K-562 leukemia and in the assay with EKVX NSCLC was > 100 µM in each case.
Take `C[C@@]12CCC(=O)c3coc(c31)C(=O)c1cc3c(cc12)C(=O)C=CC3=O`: the GI50 with A549 NSCLC was > 1 µM; with UO-31 renal, > 1 µM; with SK-MEL-2 melanoma, > 1 µM; with M14 melanoma, > 1 µM; in the assay with SF-539 CNS, < 1 µM; with CAKI-1 renal it was > 1 µM. Besides, the GI50 in the assay with K-562 leukemia and with EKVX NSCLC was > 1 µM in each case. For the same compound, the TGI is > 100 µM in the assay with A549 NSCLC; > 1 µM and 30.9 µM in the assay on UO-31 renal; > 1 µM and 45.1 µM with SK-MEL-2 melanoma; > 1 µM and 27.6 µM with M14 melanoma; > 1 µM and 31.7 µM in the assay with SF-539 CNS; > 1 µM and 38.4 µM in the assay on CAKI-1 renal. In addition, the TGI is > 56.9 µM with K-562 leukemia; > 1 µM and 48.6 µM with EKVX NSCLC.
For `O=C(c1ccc(Cl)cc1Cl)C1[C@H]2C(=O)N(c3ccc(Cc4ccc(N5C(=O)[C@@H]6ON(c7ccccc7)C(C(=O)c7ccc(Cl)cc7Cl)[C@@H]6C5=O)cc4)cc3)C(=O)[C@H]2ON1c1ccccc1` (stereo partly drawn), the TGI in the assay with A549 NSCLC, with UO-31 renal, in the assay with SK-MEL-2 melanoma, in the assay with M14 melanoma, in the assay on SF-539 CNS and with CAKI-1 renal was > 50 µM each time. In the assay on K-562 leukemia, the TGI is > 50 µM.
Turning to `COc1c(O)c2c3c(cc(C)cc3c1C(C)C)OC2`, the TGI with A549 NSCLC, in the assay on UO-31 renal, in the assay on SK-MEL-2 melanoma, with M14 melanoma, with SF-539 CNS and in the assay with K-562 leukemia was > 100 µM each time. For the same compound, in the assay on EKVX NSCLC, the TGI is > 100 µM.
In the case of `CCOC(C[C@H](O[Si](C)(C)C(C)(C)C)[C@H]1COC(=S)S1)OCC`, the TGI with A549 NSCLC, in the assay on UO-31 renal, with M14 melanoma, in the assay on SF-539 CNS, in the assay with K-562 leukemia and in the assay on EKVX NSCLC was > 100 µM each time.
Consider `COc1cc2ccnc3c2c(c1OC)-c1coc(SC)c1-3`, for which the TGI in the assay with A549 NSCLC, in the assay on UO-31 renal, in the assay on SK-MEL-2 melanoma, with M14 melanoma, in the assay with SF-539 CNS and in the assay on CAKI-1 renal was > 100 µM in each case. Also, in the assay with K-562 leukemia, the TGI is > 100 µM.
On to `CCCCCCCCCCCCCCCC(=O)OCC1OC(n2cc(F)c(=O)[nH]c2=O)C(N)C(O)C1O` (stereo not drawn), for which the TGI is 33.1 µM in the assay on A549 NSCLC; 30.8 µM in the assay with UO-31 renal; 32.8 µM in the assay on M14 melanoma; 34.8 µM in the assay with SF-539 CNS; 37.5 µM in the assay on CAKI-1 renal; 32.8 µM in the assay with K-562 leukemia. The same compound had a TGI with EKVX NSCLC of 35.6 µM.
As for `COc1cc2c[n+](C)c3c4cc(OC)c(OC(C)C)cc4ccc3c2cc1OC`, the TGI is > 100 µM in the assay with A549 NSCLC; > 100 µM in the assay on UO-31 renal; 40 µM with SK-MEL-2 melanoma; > 100 µM in the assay on M14 melanoma; > 100 µM with SF-539 CNS; > 100 µM in the assay with CAKI-1 renal. In addition, the TGI in the assay with K-562 leukemia and in the assay with EKVX NSCLC was > 100 µM throughout.
`CCCCCCC[CH2][Sn]([CH2]CCCCCCC)([O]c1cccc2cccnc12)[O]c1cccc2cccnc12`: the GI50 in the assay on A549 NSCLC is 3.18 µM; with UO-31 renal, 2 µM; with SK-MEL-2 melanoma it was 1.61 µM; in the assay with M14 melanoma, 1.33 µM; with SF-539 CNS it was 2.05 µM; in the assay on CAKI-1 renal it was 2.54 µM. Further, the results for the GI50 in the assay on K-562 leukemia and with EKVX NSCLC were 0.586 µM and 2.06 µM, respectively. Also, the TGI in the assay with A549 NSCLC came to 12 µM; in the assay on UO-31 renal it was 5.42 µM; with SK-MEL-2 melanoma, 3.14 µM; in the assay with M14 melanoma it was 3.17 µM; in the assay with SF-539 CNS, 4.68 µM; in the assay on CAKI-1 renal, 8.41 µM. For the same compound, the TGI came to 3.86 µM with K-562 leukemia and 7.18 µM in the assay with EKVX NSCLC.
For the compound `CN(C(=O)C12C3C4C1C1C2C3C41C(N)=O)C(C)(C)C` (stereo not drawn), the TGI in the assay on A549 NSCLC, with UO-31 renal, with M14 melanoma, in the assay with SF-539 CNS, in the assay on CAKI-1 renal and in the assay on K-562 leukemia was > 100 µM in each case. Further, the TGI in the assay with EKVX NSCLC is > 100 µM.
`O=[N+]([O-])c1ccc(-n2nnc(C3=NCCN3)c2-c2ccccc2)cc1`: the TGI in the assay with A549 NSCLC, in the assay on UO-31 renal, in the assay with SK-MEL-2 melanoma, in the assay on M14 melanoma, in the assay on SF-539 CNS and in the assay on CAKI-1 renal was > 100 µM each time. In addition, the TGI in the assay with K-562 leukemia and with EKVX NSCLC was > 100 µM each time.
`C=C1CC2OC(=O)C(=C)C2C(O)C2C(=C)CCC12` (stereo not drawn): the TGI turned out to be 32.2 µM in the assay on A549 NSCLC; 29.7 µM in the assay on UO-31 renal; 40.8 µM in the assay on SK-MEL-2 melanoma; 11.5 µM in the assay on SF-539 CNS; 19.7 µM with CAKI-1 renal; 30.5 µM with K-562 leukemia. Besides, the TGI with EKVX NSCLC was 19.7 µM.
As to `N/N=C(/C(=O)Nc1cccc(Cl)c1)C(C(=O)c1ccc(O)cc1O)C1OC(=O)c2ccccc21` (stereo not drawn), the TGI with A549 NSCLC, in the assay on UO-31 renal, with SK-MEL-2 melanoma, with M14 melanoma, in the assay with SF-539 CNS and with K-562 leukemia was > 100 µM each time. Moreover, the TGI in the assay with EKVX NSCLC is > 100 µM.
`CCOC(=O)CC[C@H](NC(=O)c1nc[nH]c1[N+](=O)[O-])C(=O)OCC`: the TGI with A549 NSCLC, with UO-31 renal, in the assay with SK-MEL-2 melanoma, with M14 melanoma, in the assay on SF-539 CNS and in the assay with K-562 leukemia was > 100 µM throughout. Also, the TGI in the assay on EKVX NSCLC is > 100 µM.
